Test results reported in US4293713A, “Novel 1,1,3,5-substituted biuret compound and a pharmaceutical composition containing the same” (priority 1979, dated 1981).
Read-outs that look alike come from different tables or passages of the source.

Assays:
[1] = Acute toxicity (oral, 7 days observation); assay type: in vivo; conditions: mouse, in vivo, read-out: Acute toxicity, 50% lethal dose, LD50 (values with Δ marks)
Description: (§1) Next, several tests for determining the pharmacological properties, in that acute toxicity, anti-pyretic activity, analgesic activity and anti-inflammatory activity of the present 1,1,3,5-substituted biuret compounds of the formula (1) were conducted and the test results are shown in Table (2). In the tests, each compounds to be tested was used as a suspension in 0.25% carboxymethylcellulose solution. Methods for testing are explained as follows:
(§2) The ddy strain of male mice (body weight, 20-25 g) were used as test animals. The mice were fasted overnight and the compound to be tested was administered orally. […] The lethal dose (mg/kg, body weight) of the test compound was determined in connection with the death number of mice/the number of mice tested. In Table 2, the values indicated with Δ marks are 50% lethal dose, LD50 (mg/kg, body weight).

[2] = tested on: Wistar strain of male rats; experiment: Anti-pyretic activity (dry-yeast induced fever); assay type: in vivo, rat (Wistar strain; conditions: oral, up to 4 hours after administration, dose not given
Description: as §1
According to the method reported by Tanabe [Folia Pharmacologia Japonica, Vol. 73, pp. 803 (1977)], the Wistar strain of male rats (150-180 g body weight) were used as test animals. The rats were fasted overnight, and 1 ml/100 g (body weight) of 10% dry-yeast suspension were subcutaneously injected on the back of the rats. Five hours after the injection, the test compound was administered orally, then the body temperature of the rat was measured at time sequences. Anti-pyretic activity of the test compound was determined as the FI (febril index) by integrating pyrogenetic curve up to 4 hours after the administration of the test compound with time, and indicated as inhibitory ratio (%) shown by the following formula, [formula]

[3] = tested on: ddy strain of male mice; experiment: Analgesic activity, acetic acid-induced stretching method; assay type: in vivo, mouse (ddy strain; conditions: Mus musculus; for ED50: read-out: Analgesic activity, acetic acid-induced stretching method, 50% effective dose, ED50 (values with Δ marks)
Description: as §1
According to the method reported by Koster et al., [Fed. Proc., Vol. 18, pp. 412 (1959)], the ddy strain of male mice (body weight, 20-25 g) were used as test animals. The mice were fasted overnight, 100 mg/kg body weight of the test compound was administered orally, then 1 hour after the administration, 0.2 ml of 0.7% acetic acid solution was injected intraperitoneally. The acetic acid-induced stretching symptom of mouse was observed. Analgesic activity of the test compound was calculated as the inhibitory ratio (%). In Table 2, the values in Parentheses show the data obtained from the test by using the dosage other than 100 mg/kg body weight. Further, the values indicated with Δ marks show 50% effective dose, ED50 (mg/kg body weight).

[4] = tested on: ddy strain of male mice; experiment: Analgesic activity, Haffner method; assay type: in vivo, mouse (ddy strain; conditions: with threshold morphine hydrochloride s.c.; for Analgesic activity, Haffner method, 50% effective dose, ED50 (values with Δ marks): oral, range in parentheses
Description: as §1
According to the modified method reported by Fujimura et al., [Bulletin of the Institute for Chemical Research, Kyoto University, No. 25, pp. 36 (1951)], the ddy strain of male mice (body weight, 20-25 g) were used as test animals. The mice were fasted overnight, 100 mg/kg body weight of the test compound was administered orally, then 45 minutes after the administration, the threshold amount (1.5-2.5 mg/kg body weight) of morphine hydrochloride was injected subcutaneously. Then 1-hour pain reaction of the mouse caused by a clamp was observed. Analgesic activity of the test compound was calculated as the inhibitory ratio (%). In Table 2, the values in parentheses show the data obtained from the test by using the dosage other than 100 mg/kg body weight. Further, the values indicated with Δ marks show 50% effective dose, ED50 (mg/kg body weight).

[5] = tested on: Wistar strain of male rats; experiment: Anti-inflammatory activity, acute carrageenin-induced inflammatory test; assay type: in vivo, rat (Wistar strain; conditions: Rattus norvegicus
Description: as §1
According to the method of acute carrageenin-induced inflammatory test [Folia Pharmacologia Japonica, Vol. 56, pp. 575 (1960)], the Wistar strain of male rats (body weight, 150-180 g) were used as test animals. The rats were fasted overnight, 100 mg/kg body weight of the test compound was administered orally, then 1 hour after the administration, 0.1 ml of 1% carrageenin solution, as the inflammation inducing agent, was injected subcutaneously to the hindpaw of the rat and the volume of the hindpaw was measured at time sequences. Anti-inflammatory activity of the test compound was calculated as inflammation inhibitory ratio (%) at 3 hours after the injection of the inflammation inducing agent.

[6] = tested on: ddy strain of male mice; experiment: Acute toxicity (oral, 7 days observation); assay type: in vivo; conditions: oral, mice, 7 days
Description: as §1, §2

[7] = po, 3 h, read-out: Anti-inflammatory activity, inflammation inhibitory ratio
[8] = po, read-out: Analgesic activity, acetic acid-induced stretching method, inhibitory ratio
[9] = 100 mg/kg oral, rats, 3 hours after carrageenin, read-out: Anti-inflammatory activity, inflammation inhibitory ratio
[10] = po, 2 h, read-out: Anti-inflammatory activity, inflammation inhibitory ratio (2 hours value)
[11] = 100 mg/kg oral, rats, 2 hours value, read-out: Anti-inflammatory activity, inflammation inhibitory ratio (2 hours value)
[12] = 100 mg/kg oral, mice, read-out: Analgesic activity, acetic acid-induced stretching method, inhibitory ratio

Structure (SMILES) | LD50 at 168 h ([1]; oral, mice, 7 days) [mg/kg] | Anti-pyretic activity, inhibitory ratio of febril index (FI) [2] [%] | inhibition in vivo at 100 mg/kg [5, 7] [%] | inhibition in vivo at 100 mg/kg [3, 8] [%] | Analgesic activity, Haffner method, inhibitory ratio ([4]; 100 mg/kg oral) [%] | further results
CN(C)C(=O)N(C)C(=O)Nc1ccccc1 [Compound No. 1, 1,1,3-Trimethyl-5-phenylbiuret] | 1710 | 80 | 59 | – | – | ED50 ([3]; po): 75 mg/kg; Analgesic activity, Haffner method, 50% effective dose, ED50 (values with Δ marks) [4]: 68(52-88) mg/kg
CN(C)C(=O)N(C)C(=O)Nc1ccc(F)cc1 [Compound No. 3, 1,1,3-Trimethyl-5-(4-fluorophenyl)biuret] | 930 | 61 | – | 87.5 | 62.5 | inhibition in vivo at 100 mg/kg [5, 9]: 37%
CN(C)C(=O)N(C)C(=O)Nc1ccc(Cl)cc1 [Compound No. 7, 1,1,3-trimethyl-5-p-chlorophenylbiuret] | 1200 | 84 | 47 | – | – | ED50 ([3]; po): 12 mg/kg; Analgesic activity, Haffner method, 50% effective dose, ED50 (values with Δ marks) [4]: 20(11-35) mg/kg
CN(C)C(=O)N(C)C(=O)Nc1ccc(Br)cc1 [Compound No. 11, 1,1,3-Trimethyl-5-(4-bromophenyl)biuret] | 1350 | 103 | – | – | – | ED50 ([3]; po): 60 mg/kg; Analgesic activity, Haffner method, 50% effective dose, ED50 (values with Δ marks) [4]: 74(49-113) mg/kg; inhibition in vivo at 100 mg/kg [5, 10]: 48%
COc1ccc(NC(=O)N(C)C(=O)N(C)C)cc1 [Compound No. 17, 1,1,3-Trimethyl-5-(4-methoxyphenyl)biuret] | 1800 | 75 | 33 | – | – | ED50 ([3]; po): 39 mg/kg; Analgesic activity, Haffner method, 50% effective dose, ED50 (values with Δ marks) [4]: 42 to 153 mg/kg
CN(C)C(=O)N(C)C(=O)Nc1cccc(Cl)c1 [compound 6, 1,1,3-Trimethyl-5-(3-chlorophenyl)biuret] | 1480 | 43 | – | 62.5 | – | Analgesic activity, Haffner method, inhibitory ratio ([4]; 200 mg/kg oral): 75%; inhibition in vivo at 100 mg/kg [5, 10]: 30%
CN(C)C(=O)N(C)C(=O)Nc1c(Cl)cccc1Cl [compound 9, 1,1,3-Trimethyl-5-(2,6-dichlorophenyl)biuret] | 1100 | 29 | – | 50 | 50 | inhibition in vivo at 100 mg/kg [5, 9]: 25%
CN(C)C(=O)N(C)C(=O)Nc1cccc(C(F)(F)F)c1 [compound 13, 1,1,3-Trimethyl-5-(3-trifluoromethylphenyl)biuret] | – | 62 | – | 37.5 | – | Acute toxicity, death number of mice/number of mice tested ([6]; 1000 mg/kg): 0/4; Acute toxicity, death number of mice/number of mice tested ([6]; 2000 mg/kg): 4/4; Analgesic activity, Haffner method, 50% effective dose, ED50 (values with Δ marks) [4]: 64(37-112) mg/kg; inhibition in vivo at 100 mg/kg [5, 10]: 32%
CN(C)C(=O)N(C)C(=O)Nc1ccc(N(C)C)cc1 [compound 14, 1,1,3-Trimethyl-5-(4-dimethylaminophenyl)biuret] | – | 26 | – | 62.5 | 50 | Acute toxicity, death number of mice/number of mice tested ([6]; 2000 mg/kg): 0/4; inhibition in vivo at 100 mg/kg [5, 11]: 32%
CN(C)C(=O)N(C)C(=O)Nc1ccc([N+](=O)[O-])cc1 [compound 15, 1,1,3-Trimethyl-5-(4-nitrophenyl)biuret] | – | 26 | 32 | – | 50 | Acute toxicity, death number of mice/number of mice tested ([6]; 500 mg/kg): 2/4; inhibition in vivo at 100 mg/kg [3, 12]: 100%
COc1ccccc1NC(=O)N(C)C(=O)N(C)C [compound 16, 1,1,3-Trimethyl-5-(2-methoxyphenyl)biuret] | – | 13 | – | 37.5 | 25 | Acute toxicity, death number of mice/number of mice tested ([6]; 1000 mg/kg): 0/4; Acute toxicity, death number of mice/number of mice tested ([6]; 2000 mg/kg): 2/4; inhibition in vivo at 100 mg/kg [5, 11]: 35%
Cc1ccccc1NC(=O)N(C)C(=O)N(C)C [compound 20, 1,1,3-Trimethyl-5-(2-methylphenyl)biuret] | 1000 | 41 | 29 | 37.5 | 50 | –
Cc1cccc(NC(=O)N(C)C(=O)N(C)C)c1 [compound 21, 1,1,3-Trimethyl-5-(3-methylphenyl)biuret] | – | 31 | 28 | 75 | 37.5 | Acute toxicity, death number of mice/number of mice tested ([6]; 2000 mg/kg): 2/4
Cc1cccc(C)c1NC(=O)N(C)C(=O)N(C)C [compound 24, 1,1,3-Trimethyl-5-(2,6-dimethylphenyl)biuret] | 595 | 69 | – | 75 | 37.5 | –
CC(=O)c1ccc(NC(=O)N(C)C(=O)N(C)C)cc1 [compound 27, 1,1,3-Trimethyl-5-(4-acetylphenyl)biuret] | – | 36 | – | – | 37.5 | Acute toxicity, death number of mice/number of mice tested ([6]; 500 mg/kg): 0/4; Acute toxicity, death number of mice/number of mice tested ([6]; 1000 mg/kg): 4/4; inhibition in vivo at 100 mg/kg [3, 12]: 62.5%; inhibition in vivo at 100 mg/kg [5, 10]: 31%
CN(C)C(=O)N(C)C(=O)NC1CCCCC1 [compound 29, 1,1,3-Trimethyl-5-cychlohexylbiuret] | – | – | – | – | 25 | LD50 at 168 h ([1]; po): 1450 mg/kg; inhibition in vivo at 200 mg/kg [3, 8]: 87.5%; inhibition in vivo at 100 mg/kg [5, 11]: 24%
CCN(C)C(=O)N(C)C(=O)Nc1ccccc1 [compound 33, 1-Ethyl-1,3-dimethyl-5-phenylbiuret] | 1290 | 49 | – | – | – | inhibition in vivo at 80 mg/kg [3, 8]: 50%; inhibition in vivo at 100 mg/kg [5, 9]: 34%
